Assay results from article PMC2586422 (Bioorganic & medicinal chemistry, 2008).

Legend:
[1] = system: MCF-7, SF-268, NCI-H460; assay: Human cell growth inhibition, three cell lines together; format: cell-based; conditions: read-out: IC50 averaged over the three cell lines investigated
[2] = system: HIV-1 RT; conditions: cited from earlier work
[3] = target: T1, Human FPPS (farnesyl diphosphate synthase) (Homo sapiens, UniProt P14324); assay: FPPS inhibition; format: biochemical
T1 sequence (P14324 1-419): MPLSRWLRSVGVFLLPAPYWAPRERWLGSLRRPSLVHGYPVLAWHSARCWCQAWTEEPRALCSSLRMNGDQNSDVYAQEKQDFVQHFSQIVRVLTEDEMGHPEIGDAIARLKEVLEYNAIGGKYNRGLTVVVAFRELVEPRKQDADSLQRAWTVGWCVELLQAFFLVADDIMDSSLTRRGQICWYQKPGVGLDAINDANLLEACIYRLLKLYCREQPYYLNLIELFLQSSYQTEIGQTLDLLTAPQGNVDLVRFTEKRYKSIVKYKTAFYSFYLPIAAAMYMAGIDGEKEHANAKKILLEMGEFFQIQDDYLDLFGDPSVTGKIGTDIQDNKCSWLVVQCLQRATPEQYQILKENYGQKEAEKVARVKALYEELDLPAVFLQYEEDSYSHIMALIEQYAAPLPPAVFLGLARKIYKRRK

Row | Structure (SMILES) | IC50 [1] [µM] | also measured
1 | O=P(O)(O)C(O)(Cc1cnc2ccccn12)P(=O)(O)O [Compound 44, minodronate] | ~5 | –
2 | O=P(O)(O)C(O)(Cn1ccnc1)P(=O)(O)O [Compound 36, zoledronate] | ~15 | –
3 | O=P(O)(O)C(Nc1cccc(-c2ccccc2)c1)P(=O)(O)O [Compound 3] | ~229 | activity in inhibiting NRTI excision (in words) ([2]; previous work ref 11): some activity
4 | NCCC(O)(P(=O)(O)O)P(=O)(O)O [Compound 4, pamidronate] | – | inhibition of the phosphorolytic activity of RT (in words) [2]: competitively inhibited
5 | O=P(O)(O)C(O)(Cc1ccc(Cl)c(Cl)c1)P(=O)(O)O [Compound 5] | – | IC50 [3]: 8.5 µM
